# Source: article PMC8801796 (Reproductive Toxicology (Elmsford, N.y.), 2022)
# Columns and labels:
# [1] = test system: Wistar Han (Crl:WI[Han]) rats; assay: Rat embryo-fetal development
# [2] = Rat embryo-fetal development; settings: female, Wistar Han, rat, in vivo, oral
# [3] = test system: Wistar Han (Crl:WI[Han]) rats; assay: Fertility and early embryonic development study in rats; format: in vivo, rat; settings: for Corpora lutea / Implantation sites / Live embryos / Resorptions: GD 14 uterine examination; for Number of pregnant females: of 20
# [4] = as above; format: in vivo, rat; settings: both, Wistar Han, rat, in vivo, oral
compound,measurement,setting,value
"CC(C)(C)[C@H](NC(=O)C(F)(F)F)C(=O)N1C[C@H]2[C@@H]([C@H]1C(=O)N[C@H](C#N)C[C@@H]1CCNC1=O)C2(C)C [NMV, nirmatrelvir]",Fetal weight (g)/Litter,[1]; 300 mg/kg,5.5 ± 0.3 g
same,Implantation sites,[1]; 300 mg/kg,9.3 ± 2.4
same,Maternal Food Consumption (GD 6−21),[1]; 300 mg/kg,322.3 ± 20.8 g/day
same,Post-implantation loss,[1]; 300 mg/kg,6.8 ± 14.9%
same,Pre-implantation loss,[1]; 300 mg/kg,18.7 ± 19.9%
same,Corpora lutea,[1]; 1000 mg/kg,11.5 ± 1.5
same,Fetal weight (g)/Litter,[1]; 1000 mg/kg,5.4 ± 0.3 g
same,Implantation sites,[1]; 1000 mg/kg,9.7 ± 2.6
same,Maternal Food Consumption (GD 6−21),[1]; 1000 mg/kg,309.5 ± 43.1 g/day
same,Post-implantation loss,[1]; 1000 mg/kg,9.7 ± 14.1%
same,Pre-implantation loss,[1]; 1000 mg/kg,15.3 ± 21.0%
same,Effects on embryo-fetal viability,[1]; all dose groups,no NMV-related effects on embryo-fetal viability
same,Maternal toxicity,[1]; any dose up to 1000 mg/kg/day,no NMV-related maternal toxicity
same,"Effects on fetal external, visceral, or skeletal morphological development",[1]; up to 1000 mg/kg/day,"no effects on fetal external, visceral, or skeletal morphological development"
same,NOAEL,[2],1000 mg/kg/day
same,"Female Food Consumption, Gestation Day 0−14",[3]; 60 mg/kg/day,19.2 ± 2.1 g/day
same,"Female Food Consumption, Premating Day 1−14",[3]; 60 mg/kg/day,15.3 ± 1.2 g/day
same,Female Terminal Body Weight,[3]; 60 mg/kg/day,277.0 ± 24.1 g
same,"Male Food Consumption, Mating Day 15−19",[3]; 60 mg/kg/day,19.3 ± 2.8 g/day
same,"Male Food Consumption, Premating Day 1−14",[3]; 60 mg/kg/day,22.0 ± 1.1 g/day
same,Male Terminal Body Weight,[3]; 60 mg/kg/day,409.9 ± 22.7 g
same,Mean no. of estrous cycles,[3]; 60 mg/kg/day,2.7 ± 0.5
same,Postimplantation loss,[3]; 60 mg/kg/day,5.3 ± 5.7%
same,Precoital interval,[3]; 60 mg/kg/day,3.6 ± 3.5 days
same,Preimplantation loss,[3]; 60 mg/kg/day,9.7 ± 8.1%
same,Corpora lutea,[3]; 60 mg/kg/day,13.8 ± 1.3
same,Implantation sites,[3]; 60 mg/kg/day,12.5 ± 1.4
same,Live embryos,[3]; 60 mg/kg/day,11.8 ± 1.4
same,Resorptions,[3]; 60 mg/kg/day,0.7 ± 0.7
same,Number of pregnant females,[3]; 60 mg/kg/day,19
same,"Female Food Consumption, Gestation Day 0−14",[3]; 200 mg/kg/day,19.0 ± 2.2 g/day
same,"Female Food Consumption, Premating Day 1−14",[3]; 200 mg/kg/day,14.8 ± 0.8 g/day
same,Female Terminal Body Weight,[3]; 200 mg/kg/day,272.0 ± 13.3 g
same,"Male Food Consumption, Mating Day 15−19",[3]; 200 mg/kg/day,18.0 ± 3.1 g/day
same,"Male Food Consumption, Premating Day 1−14",[3]; 200 mg/kg/day,23.0 ± 1.2 g/day
same,Male Terminal Body Weight,[3]; 200 mg/kg/day,411.6 ± 22.2 g
same,Mean no. of estrous cycles,[3]; 200 mg/kg/day,2.7 ± 0.5
same,Postimplantation loss,[3]; 200 mg/kg/day,9.5 ± 12.8%
same,Precoital interval,[3]; 200 mg/kg/day,3.0 ± 2.2 days
same,Preimplantation loss,[3]; 200 mg/kg/day,11.0 ± 18.4%
same,Corpora lutea,[3]; 200 mg/kg/day,14.1 ± 1.7
same,Implantation sites,[3]; 200 mg/kg/day,12.6 ± 3.0
same,Live embryos,[3]; 200 mg/kg/day,11.5 ± 3.2
same,Resorptions,[3]; 200 mg/kg/day,1.1 ± 1.6
same,Number of pregnant females,[3]; 200 mg/kg/day,18
same,"Female Food Consumption, Gestation Day 0−14",[3]; 1000 mg/kg/day,19.0 ± 1.6 g/day
same,"Female Food Consumption, Premating Day 1−14",[3]; 1000 mg/kg/day,14.7 ± 1.0 g/day
same,Female Terminal Body Weight,[3]; 1000 mg/kg/day,277.8 ± 14.1 g
same,"Male Food Consumption, Mating Day 15−19",[3]; 1000 mg/kg/day,18.3 ± 3.2 g/day
same,Male Terminal Body Weight,[3]; 1000 mg/kg/day,408.9 ± 19.7 g
same,Mean no. of estrous cycles,[3]; 1000 mg/kg/day,2.6 ± 0.5
same,Postimplantation loss,[3]; 1000 mg/kg/day,10.6 ± 11.9%
same,Precoital interval,[3]; 1000 mg/kg/day,3.2 ± 2.9 days
same,Preimplantation loss,[3]; 1000 mg/kg/day,16.9 ± 22.8%
same,Corpora lutea,[3]; 1000 mg/kg/day,12.7 ± 1.6
same,Implantation sites,[3]; 1000 mg/kg/day,10.5 ± 3.1
same,Live embryos,[3]; 1000 mg/kg/day,9.6 ± 3.2
same,Resorptions,[3]; 1000 mg/kg/day,1.0 ± 0.8
same,Number of pregnant females,[3]; 1000 mg/kg/day,20
same,"Male Food Consumption, Premating Day 1−14","[3]; 1000 mg/kg/day, p ≤ 0.05",20.9 ± 0.9 g/day
same,Effects on male or female fertility,[3]; up to 1000 mg/kg/day,no NMV-related effects on male or female fertility
same,Systemic toxicity in males and females,[3]; up to 1000 mg/kg/day,no evidence of systemic toxicity
same,NOAEL,[4],1000 mg/kg/day
